Test results from US20190209581A1, “DOSAGE REGIMEN FOR TREATMENT OF SOLID TUMORS” (Eli Lilly and Company, priority 2016, published 2019).
Entries after “also recorded” stand apart in the source; their conditions may differ.

Key:
Dogs (beagle) = assay: Toxicity study in dogs, oral gavage, daily for 6 days or every other day for 3 doses; assay type: in vivo, dog; conditions: for Survival: dogs
Method: A study is carried out to assess the Toxicity and Toxicokinetics of 4,4,4-trifluoro-N-[(1S)-2-[[(7S)-5-(2-hydroxyethyl)-6-oxo-7H-pyrido[2,3-d][3]benzazepin-7-yl]amino]-1-methyl-2-oxo-ethyl]butanamide in dogs given oral gavage doses of 0 or 1.3 mg/kg once daily for 6 days or 0.3 or 3 mg/kg every other day for a total of 3 doses. 4,4,4-Trifluoro-N-[(1S)-2-[[(7S)-5-(2-hydroxyethyl)-6-oxo-7H-pyrido[2,3-d][3]benzazepin-7-yl]amino]-1-methyl-2-oxo-ethyl]butanamide is combined with a vehicle comprising 1% carboxymethylcellulose sodium, 0.25% polysorbate 80 and 0.05% Dow Corning® Antifoam 1510-US in purified water. Dogs (beagle), Covance Research Products, 1 animal/sex/group are fed daily (soon after dosing) and are fasted overnight prior to scheduled chemistry blood collections and necropsy. The test compound is administered by oral gavage in a volume of 2 mL/kg body weight. The duration of the study for all groups is 6 days.
Groups 01 and 04: At a minimum, observations are recorded daily before dosing, approximately 1 hour postdose, and in the afternoon, with the following exception: afternoon clinical observations are not recorded on weekends.
Groups 02 and 03: At a minimum, observations are recorded before dosing, approximately 1 hour postdose, and in the afternoon on Days 2 and 6; before dosing and approximately 1 hour postdose on Day 4; and at approximately the same times as Groups 01 and/or 04 on Days 3, 5, and 7.
Animals are weighed on Days 1 and 7.
A qualitative assessment of food consumption is made each day by visual estimation of the amount of food remaining (recorded in increments of 25%).
Groups 01 and 04: Blood samples are collected before dosing on Day 1 and on Day 7 (not dosed on Day 7).
Groups 02 and 03: Blood samples are collected before dosing on Days 1 and 6.
Urine samples are collected from all animals by cystocentesis at the scheduled necropsy.

[1] = tested on: K-562 human chronic myelogenous leukemia (CML) cell line; assay: Tumor growth inhibition, K-562 xenograft; assay type: in vivo; conditions: K-562 in mice, oral 8 mg/kg, (Mon, Wed, Fri)x4; p <0.05 to <0.001
Method: (§1) To evaluate in vivo efficacy and effect of 4,4,4-Trifluoro-N-[(1S)-2-[[(7S)-5-(2-hydroxyethyl)-6-oxo-7H-pyrido[2,3-d][3]benzazepin-7-yl]amino]-1-methyl-2-oxo-ethyl]butanamide on inhibition of Notch processing pharmacodynamics (PD), several cell lines- and patient-derived xenograft models are used. A2780 is a human ovarian cell line (Sigma-Aldrich, No. 93112519); SW480 is a human colorectal cell line (ATCC No. CCL-228); HCT 116 is a human colorectal cell line (ATCC No. CCL-247); U-87 MG is a human glioblastoma cell line (ATCC No. HTB-14); A375 is a human malignant melanoma cell line (ATCC No. CRL-1619); K-562 is a human chronic myelogenous leukemia (CML) cell line characterized by the presence of a fusion transcript comprised of the Bcr and Abl1 genes (ATCC No. CCL-243); Jurkat; HEL 92.1.7 is a human erythroleukemia cell line (ATCC No. TIB-180). […] Tumor growth and body weight are monitored over time to evaluate efficacy and signs of toxicity. Bidimensional measurements of tumors are performed twice a week and tumor volumes are calculated based on the following formula: (Tumor Volume)=[(L)×(W2)×(Π/6)] where L is mid-axis length and W is mid-axis width. […] The log volume data are analyzed with a two-way repeated measures analysis of variance by time and treatment using the MIXED™ procedures in SAS™ software (version 8.2). […]

[2] = tested on: human colon carcinoma (EL 1986); assay: Tumor growth inhibition, patient-derived tumor model EL1986; assay type: in vivo; conditions: EL1986 in mice, oral 8 mg/kg, (Mon, Wed, Fri)x5; p <0.0001
Method: as §1

C[C@H](NC(=O)CCC(F)(F)F)C(=O)N[C@@H]1C(=O)N(CCO)c2ncccc2-c2ccccc21 [Compound 1, 4,4,4-trifluoro-N-[(1S)-2-[[(7S)-5-(2-hydroxyethyl)-6-oxo-7H-pyrido[2,3-d][3]benzazepin-7-yl]amino]-1-methyl-2-oxo-ethyl]butanamide]
Compound-related signs (Dogs (beagle); both, beagle, dog, in vivo, 1.3 mg/kg, 6 days): lateral recumbency and labored respiration for the female on Day 7, decreased activity for both animals on Days 6 and 7, and dehydration (decreased skin elasticity) for both animals on Day 7 | Food consumption (Dogs (beagle); dog, in vivo): Decreased food consumption also occurred in all compound-treated groups | Gastrointestinal toxicity, daily versus three times/week at same total weekly dose (Dogs (beagle); dog, in vivo): more severe gastrointestinal toxicity compared to three times/week dosing | Tolerability of once daily administration at same total weekly dose (Dogs (beagle); dog, in vivo): once daily administration is not tolerated | Compound-related signs (Dogs (beagle); dog, in vivo, 0.3 mg/kg): mucoid, and watery feces | Pathology findings (Dogs (beagle); dog, in vivo, 0.3 mg/kg): adverse inflammatory changes in the large intestine and evidence of systemic inflammation | Intestinal changes (Dogs (beagle); dog, in vivo, 1.3 mg/kg): up to marked mucoid enteropathy with red fluid intestinal contents, erosion, ulceration, and mostly neutrophilic mixed inflammation | Other symptoms (feces) (Dogs (beagle); dog, in vivo, 1.3 mg/kg): red, dark (female only), mucoid, and watery (female only), feces | Compound-related signs (Dogs (beagle); dog, in vivo, 3 mg/kg): red (male only), mucoid, and watery (male only), feces | Survival (Dogs (beagle); 1.3 mg/kg daily): euthanized following 6 daily doses due to poor condition | Survival (Dogs (beagle); 0.3 or 3 mg/kg 3 times/week (Days 2, 4, and 6)): survived until the scheduled termination; also recorded: survived until the scheduled necropsy | % TGI [1]: 54.96 (<0.05 to % | % TGI [2]: 62.00 (<0.0001) %
